Results from patent US7618657B2, “Active ingredients preparation and single compound purification from traditional Chinese herbal medicine Fructus Trichosanthis and uses thereof” (priority 2003, dated 2009).

How the values were obtained:
[1] = tested on: K562 cells; assay: TMB staining of hemoglobin positive K562 cells; type: cell-based, human; conditions: six days culture, hydroxyurea (positive control) 25.0 μg/ml
Description: K562 cells (ATCC) were cultured in RPMI 1640 (Gibco) supplemented with 10% fetal calf serum (FCS, Gibco) and 1% PSN (Gibco). The cultures were maintained under a humidified atmosphere with 95% air/5% CO2 at 37° C.
The hemoglobin positive K562 cells can be identified by 3,3′,5,5′-tetramethylbenzidine (TMB, Sigma) staining. In brief, 10 μl/cell suspension was pipetted out and mixed with 10 μl TMB working solution. Five minutes later, cells were scored as positive (blue) or negative (pale yellow) at 200× microscope.
Before the assay, K562 cells were scored first by TMB staining to ensure there was no selfdifferentiation (TMB positive cell percentage less than 1.0%). 100 μl/well complete RPMI 1640 was added into a 96-well plate, and 180 μl was added in the first well. 20 μl Trichosanthes extraction components was added into the first well immediately. Then 100 μl of the mixture was transferred to the next well. By such one half dilution method, serial dilutions of Trichosanthes extraction components were got.
100 μl K562 cell suspension with the density of 4×10^4 cells/ml was add into each well of the 96-well plate. […] Then the hemoglobin positive cells were recorded by TMB staining.
Dose-response effect of the lead compound from Trichosanthes was studied on K562 cells which were cultured and assayed as described in example 3. […] Then the hemoglobin positive cells were recorded by TMB staining.

[2] = tested on: K562 cells; assay: FACS analysis of fetal hemoglobin expression in treated K562 cells; type: cell-based, human; conditions: HU 25 mg/ml, 6 days, FIG. 7
Description: K562 cells were cultured with hydroxyurea (HU, 25 mg/ml) and the lead compound from Trichosanthes (12.5 ng/ml) for 6 days. Then the cells were conjugated with PE labeled mouse anti human fetal hemoglobin monoclonal antibodies (Becton Dickinson) followed by FACS analysis. In brief, 1×10^6 cells were collected in a 15 ml falcon tube and centrifuged in 150 rpm for 5 min. The cell pallet was washed with PBS. Then cells were fixed by gently mixing with 1 ml PBS with 4% formaldehyde (37-40%, Merck) for 1 hr at room temperature. The fixed cells were washed once with PBS and then were resuspended in 100 μl 0.01% Triton X-100 (Merck) in PBS/0.1% BSA (Sigma). 20 μl monoclonal antibody was added in, followed by mixing thoroughly and incubating for 30 min in darkness at room temperature, with frequent gentle shaking. Finally the cells were washed with 1× PBS with 0.1% sodium azide once and kept in 4° C. until analysis.

With NC(=O)NO [Hydroxyurea, hydroxyurea] the “TMB Positive Cell Percentage” value [1] was 66.7 ± 4.4% and the “expression of fetal hemoglobin (FACS, PE labeled anti human fetal hemoglobin antibody)” value [2] was “induced”.
